Test systems include MOLT-4 leukemia; COLO 205 colon; K-562 leukemia; SF-268 CNS; M14 melanoma; SW-620 colon; ACHN renal; OVCAR-5 ovarian; SNB-19 CNS; LOX IMVI melanoma.
Common to all, as to assay: growth of human tumour cells (NCI), 48 h

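A five-concentration, 48-hour dose response in 96-well plates underlies each endpoint, interpolated linearly between surrounding concentrations. Abbreviation: GI50, concentration required for 50% inhibition of growth. Definition used: TGI = concentration required for complete inhibition of growth.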

As for `O=C(COc1ccc(Cl)cc1Cl)NNc1ccc([N+](=O)[O-])cc1`, the GI50 with MOLT-4 leukemia is 81.6 µM; with COLO 205 colon it was 95.7 µM; with K-562 leukemia it was 39 µM; with SF-268 CNS, 36.9 µM; in the assay with M14 melanoma it was over 100 µM; in the assay with SW-620 colon, over 100 µM. Besides, the GI50 with ACHN renal was 51.5 µM; in the assay on OVCAR-5 ovarian, over 100 µM; in the assay on SNB-19 CNS, 25 µM; in the assay with LOX IMVI melanoma, over 100 µM. The TGI in the assay on MOLT-4 leukemia, in the assay with COLO 205 colon, in the assay with K-562 leukemia, in the assay on SF-268 CNS, with M14 melanoma and in the assay with SW-620 colon was over 100 µM in each case. Further, the TGI with ACHN renal is over 100 µM; in the assay on OVCAR-5 ovarian, over 100 µM; in the assay on SNB-19 CNS it was 95.6 µM; in the assay with LOX IMVI melanoma, over 100 µM.

Take `C#Cc1cccc(NC(=O)C2CCCCN2C(=O)CCl)c1` (centres undefined): the GI50 with MOLT-4 leukemia was 12 µM; in the assay with COLO 205 colon it was 15.6 µM; in the assay with K-562 leukemia, 15.3 µM; with SF-268 CNS it was 21.1 µM; in the assay with M14 melanoma, 18.8 µM; with SW-620 colon, 12.1 µM. The GI50 in the assay with ACHN renal was 13.1 µM; in the assay on OVCAR-5 ovarian it was 13.1 µM; in the assay on SNB-19 CNS, over 82.5 µM; in the assay with LOX IMVI melanoma it was 7.6 µM. Further, the TGI in the assay with MOLT-4 leukemia was 52.9 µM; with COLO 205 colon, 34.7 µM; with K-562 leukemia it was over 82.5 µM; in the assay with SF-268 CNS, 75.2 µM; in the assay with M14 melanoma it was 74.9 µM; in the assay on SW-620 colon it was 31.5 µM. For the same molecule, the TGI was 24.5 µM with ACHN renal, 27.2 µM in the assay on OVCAR-5 ovarian, over 82.5 µM in the assay with SNB-19 CNS and 18.6 µM in the assay with LOX IMVI melanoma.

As to `CS(=O)(=O)Nc1cc(-c2ccc3ncnc(Nc4ccc(OCc5ccccn5)c(Cl)c4)c3c2)cnc1Cl`, the GI50 was 0.223 µM with MOLT-4 leukemia; 0.316 µM in the assay with COLO 205 colon; 1.29 µM in the assay on K-562 leukemia; 0.429 µM in the assay with SF-268 CNS; 0.486 µM in the assay on M14 melanoma; 0.448 µM with SW-620 colon. Also, the GI50 in the assay with ACHN renal was 1.02 µM; in the assay with OVCAR-5 ovarian, 0.325 µM; in the assay on SNB-19 CNS, 0.449 µM; in the assay on LOX IMVI melanoma, 0.268 µM. In addition, the TGI with MOLT-4 leukemia was 0.75 µM; in the assay with COLO 205 colon it was 1.85 µM; with K-562 leukemia, over 100 µM; in the assay on SF-268 CNS, over 100 µM; in the assay with SW-620 colon it was 10.5 µM; with ACHN renal, over 100 µM. In addition, the TGI with OVCAR-5 ovarian is 4.58 µM; with SNB-19 CNS, over 100 µM; with LOX IMVI melanoma it was 1.92 µM.

For the molecule `COc1ccc(/C=C2\CCC(C)(CN(C)C)C2=O)cc1Br` (centres undefined), the TGI was 58 µM with MOLT-4 leukemia; 34.4 µM in the assay with COLO 205 colon; 64.9 µM with K-562 leukemia; 23.3 µM with SF-268 CNS; 35.1 µM with M14 melanoma; 38.4 µM in the assay on SW-620 colon. Besides, the TGI in the assay with ACHN renal is over 62.6 µM; with OVCAR-5 ovarian it was over 100 µM; in the assay on SNB-19 CNS it was 47.8 µM; in the assay with LOX IMVI melanoma it was 35.3 µM.

Regarding `O=C(O)[C@@H](Cc1ccccc1)NS(=O)(=O)c1ccc(-c2ccccc2)cc1`, the GI50 in the assay on MOLT-4 leukemia, in the assay on COLO 205 colon, in the assay on K-562 leukemia, in the assay on SF-268 CNS, in the assay with M14 melanoma and in the assay with SW-620 colon was over 100 µM each time. The GI50 with ACHN renal, in the assay with OVCAR-5 ovarian, with SNB-19 CNS and in the assay with LOX IMVI melanoma was over 100 µM each time. The TGI with MOLT-4 leukemia, with COLO 205 colon, with K-562 leukemia, in the assay with SF-268 CNS, in the assay on M14 melanoma and with SW-620 colon was over 100 µM each time. Besides, the TGI with ACHN renal, in the assay with OVCAR-5 ovarian, in the assay on SNB-19 CNS and in the assay on LOX IMVI melanoma was over 100 µM each time.

For `Cc1cccc(Nc2ncc(-c3ccccc3)o2)c1`, the GI50 in the assay on MOLT-4 leukemia, with COLO 205 colon, in the assay on K-562 leukemia, in the assay on SF-268 CNS, in the assay with M14 melanoma and in the assay on SW-620 colon was over 25 µM throughout. Further, the GI50 with ACHN renal, in the assay on OVCAR-5 ovarian, in the assay with SNB-19 CNS and with LOX IMVI melanoma was over 25 µM throughout. For the same molecule, the TGI with MOLT-4 leukemia, in the assay on COLO 205 colon, with K-562 leukemia, with SF-268 CNS, in the assay with M14 melanoma and in the assay with SW-620 colon was over 25 µM throughout. In addition, the TGI with ACHN renal, in the assay with OVCAR-5 ovarian, in the assay with SNB-19 CNS and in the assay on LOX IMVI melanoma was over 25 µM in each case.

`COc1ccc2c(c1)C(=O)CC(C(N)=O)C2` (centres undefined): the TGI in the assay on MOLT-4 leukemia, in the assay on COLO 205 colon, in the assay with K-562 leukemia, in the assay with SF-268 CNS, in the assay on M14 melanoma and in the assay with SW-620 colon was over 100 µM throughout. For the same molecule, the TGI in the assay on ACHN renal, in the assay with OVCAR-5 ovarian, in the assay with SNB-19 CNS and with LOX IMVI melanoma was over 100 µM throughout.

Take `Cc1nc(-n2nc(-c3ccccc3)cc2-c2ccccc2)sc1C(/C=C\c1ccc([N+](=O)[O-])cc1)=N/NC(=S)NN`: the TGI is over 100 µM in the assay on MOLT-4 leukemia; over 31.6 µM in the assay with COLO 205 colon; over 100 µM in the assay with K-562 leukemia; over 61.3 µM in the assay with SF-268 CNS; over 80.1 µM with M14 melanoma; over 100 µM with SW-620 colon. The TGI is over 82 µM in the assay on ACHN renal, over 65.4 µM in the assay with OVCAR-5 ovarian, over 80 µM in the assay with SNB-19 CNS and over 66.5 µM with LOX IMVI melanoma.

The values above are taken from PubChem BioAssay (NCI).
